The source of these data is patent US9981950B2, “Triazoles as NR2B receptor inhibitors” (Janssen Pharmaceuticals, Inc., priority 2014, dated 2018).

Assay [1] has as its target T1, rat NR1/NR2B receptor (Rattus norvegicus (Rat), UniProt P35439+Q00960). The assay can be described thus: NR2B binding assay: inhibition of specific [3H]-Ifenprodil binding to the rat NR1/NR2B receptor. Particulars: rat brain membranes, Hill-plot 2-parameter-model. The essentials: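 Nonspecific binding was defined with […] CP101.606, and bound radioactivity was separated by filtration over PEI-soaked filters. IC50 was fitted with a Hill-plot 2-parameter model.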

Another assay concerns the target hERG-receptor (Homo sapiens (Human), UniProt Q12809). The assay can be described thus: HERGBD: inhibition of specific 3H-Dofetilide binding to the hERG-receptor. As to conditions: HEK cell membranes with human ERG, Hill-plot 2-parameter-model. An outline of the steps:
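Membranes from HEK cells stably expressing human ERG incubated 90 min at RT with 1.5 nmol/l 3H-dofetilide in 20 mM HEPES/0.1 mM KCl pH 7.2, inhibitor in 1% DMSO. Nonspecific binding with […] dofetilide; bound ligand separated by filtration and scintillation counted.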
A general note: hERG is a cardiac potassium channel; its block is linked to QT prolongation.

Assay [2] concerns the target T1, rat NR1/NR2B receptor. The assay can be described thus: RRNR2BB: inhibition of specific binding to the rat NR1/NR2B receptor. Particulars: [3H]-Ifenprodil binding, rat brain membranes, Hill-plot 2-parameter-model. An outline of the steps: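 Washed membranes from male Wistar rat forebrain (whole brain minus cerebellum) in 5 mM Tris/1 mM EDTA pH 7.4 used in ifenprodil-site binding, 60 min at 4° C. Nonspecific binding defined with […] CP101.606; bound separated by filtration on PEI-soaked filters. IC50 from Hill plot, 2-parameter model.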

The IC50 is the midpoint of a concentration-inhibition curve.

Molecules are shown by their SMILES.

hERG-receptor, sequence (Q12809 whole entry): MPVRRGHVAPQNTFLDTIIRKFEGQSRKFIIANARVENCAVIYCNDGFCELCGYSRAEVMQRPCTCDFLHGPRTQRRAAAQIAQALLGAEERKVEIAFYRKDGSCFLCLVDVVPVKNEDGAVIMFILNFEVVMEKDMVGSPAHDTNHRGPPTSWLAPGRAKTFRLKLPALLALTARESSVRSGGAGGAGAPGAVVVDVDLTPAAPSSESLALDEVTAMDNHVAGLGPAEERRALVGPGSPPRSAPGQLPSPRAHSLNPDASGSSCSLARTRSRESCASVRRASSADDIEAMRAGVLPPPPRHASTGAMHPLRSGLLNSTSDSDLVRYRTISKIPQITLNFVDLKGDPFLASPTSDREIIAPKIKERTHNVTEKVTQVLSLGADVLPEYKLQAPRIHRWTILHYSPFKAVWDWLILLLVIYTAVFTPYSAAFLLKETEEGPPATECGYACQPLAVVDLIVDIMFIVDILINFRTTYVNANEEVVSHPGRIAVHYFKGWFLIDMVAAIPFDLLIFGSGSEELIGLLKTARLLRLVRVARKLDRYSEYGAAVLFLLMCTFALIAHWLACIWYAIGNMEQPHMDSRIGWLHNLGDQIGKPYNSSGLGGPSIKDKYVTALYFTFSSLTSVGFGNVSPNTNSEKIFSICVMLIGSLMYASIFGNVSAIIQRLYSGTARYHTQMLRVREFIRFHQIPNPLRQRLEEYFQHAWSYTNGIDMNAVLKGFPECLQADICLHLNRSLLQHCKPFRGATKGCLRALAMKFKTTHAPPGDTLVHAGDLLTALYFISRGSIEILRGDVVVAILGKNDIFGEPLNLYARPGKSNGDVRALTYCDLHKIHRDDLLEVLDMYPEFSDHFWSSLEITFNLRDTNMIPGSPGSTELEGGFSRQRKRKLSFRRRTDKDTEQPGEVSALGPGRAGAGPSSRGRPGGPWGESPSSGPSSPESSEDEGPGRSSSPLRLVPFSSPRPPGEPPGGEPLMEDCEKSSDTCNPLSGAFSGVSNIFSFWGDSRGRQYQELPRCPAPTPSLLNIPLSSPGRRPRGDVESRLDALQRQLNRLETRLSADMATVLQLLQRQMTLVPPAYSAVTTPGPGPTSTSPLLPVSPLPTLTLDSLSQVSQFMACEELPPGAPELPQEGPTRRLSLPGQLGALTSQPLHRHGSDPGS
T1 sequence (Q00960 27-1482, other chains not shown): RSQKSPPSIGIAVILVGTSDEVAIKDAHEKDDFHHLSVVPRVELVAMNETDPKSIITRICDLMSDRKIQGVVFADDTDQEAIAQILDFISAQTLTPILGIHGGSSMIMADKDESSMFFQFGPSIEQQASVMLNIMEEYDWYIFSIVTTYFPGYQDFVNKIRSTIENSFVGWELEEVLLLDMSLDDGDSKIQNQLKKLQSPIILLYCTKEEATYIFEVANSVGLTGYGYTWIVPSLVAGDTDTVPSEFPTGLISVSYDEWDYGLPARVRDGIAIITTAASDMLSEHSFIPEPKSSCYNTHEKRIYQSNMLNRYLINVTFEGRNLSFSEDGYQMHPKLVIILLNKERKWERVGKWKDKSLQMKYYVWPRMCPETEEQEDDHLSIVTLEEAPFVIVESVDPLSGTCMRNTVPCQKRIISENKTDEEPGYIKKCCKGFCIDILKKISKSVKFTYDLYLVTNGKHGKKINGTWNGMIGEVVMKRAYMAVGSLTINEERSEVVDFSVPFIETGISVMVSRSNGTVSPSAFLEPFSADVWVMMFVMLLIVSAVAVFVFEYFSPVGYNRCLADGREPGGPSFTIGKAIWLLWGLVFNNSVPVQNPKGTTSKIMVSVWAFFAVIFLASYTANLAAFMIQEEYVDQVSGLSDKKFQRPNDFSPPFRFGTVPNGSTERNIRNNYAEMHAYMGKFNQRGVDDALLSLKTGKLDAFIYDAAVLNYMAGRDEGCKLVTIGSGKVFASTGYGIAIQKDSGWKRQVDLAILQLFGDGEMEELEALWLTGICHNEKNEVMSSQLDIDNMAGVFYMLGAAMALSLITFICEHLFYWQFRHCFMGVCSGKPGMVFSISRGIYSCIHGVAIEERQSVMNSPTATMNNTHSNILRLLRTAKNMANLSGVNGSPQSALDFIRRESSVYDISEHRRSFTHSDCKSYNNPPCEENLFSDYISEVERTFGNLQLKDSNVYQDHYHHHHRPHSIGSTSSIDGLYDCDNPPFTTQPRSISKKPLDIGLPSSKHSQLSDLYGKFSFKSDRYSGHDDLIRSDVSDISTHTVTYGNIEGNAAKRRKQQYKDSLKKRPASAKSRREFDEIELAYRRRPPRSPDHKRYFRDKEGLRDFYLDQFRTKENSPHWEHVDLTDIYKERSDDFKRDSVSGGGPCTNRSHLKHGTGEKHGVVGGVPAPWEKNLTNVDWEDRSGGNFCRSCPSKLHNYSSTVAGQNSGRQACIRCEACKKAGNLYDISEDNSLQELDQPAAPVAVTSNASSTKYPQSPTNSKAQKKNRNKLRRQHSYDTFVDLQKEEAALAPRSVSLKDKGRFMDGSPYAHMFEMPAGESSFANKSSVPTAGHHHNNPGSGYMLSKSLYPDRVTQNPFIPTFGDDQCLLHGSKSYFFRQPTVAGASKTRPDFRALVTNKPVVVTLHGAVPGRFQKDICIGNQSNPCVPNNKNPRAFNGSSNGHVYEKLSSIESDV

As for `CC(C)c1nccn1Cc1cn(-c2ccc(Cl)cc2)nn1` [Example 23, 1-(4-Chloro-phenyl)-4-(2-isopropyl-imidazol-1-ylmethyl)-1H-[1,2,3]triazole], the IC50 at rat NR1/NR2B receptor [1] turned out to be 0.0774 µM; at hERG-receptor it was 7.94 µM; on rat NR1/NR2B receptor [2], 0.0774 µM.

As to `Cc1nccn1Cc1cn(-c2ccc(F)c(C(F)F)c2)nn1` [Example 81, 1-(3-Difluoromethyl-4-fluoro-1-phenyl)-4-(2-methyl-imidazol-1-ylmethyl)-1H-[1,2,3]triazole], the IC50 on rat NR1/NR2B receptor [1] came to 0.00383 µM; on hERG-receptor, 14.3 µM; at rat NR1/NR2B receptor [2] it was 0.00383 µM.

In the case of `Fc1ccc(-n2cc(Cn3ccnc3C3CC3)nn2)cc1C(F)F` [Example 82, 4-(2-Cyclopropyl-imidazol-1-ylmethyl)-1-(3-difluoromethyl-4-fluoro-phenyl)-1H-[1,2,3]triazole], the IC50 on rat NR1/NR2B receptor [1] came out at 0.0162 µM; on hERG-receptor, 15.7 µM; at rat NR1/NR2B receptor [2], 0.0162 µM.

On to `CC(C)c1nccn1Cc1cn(-c2ccc(F)c(C(F)F)c2)nn1` [Example 84, 1-(3-Difluoromethyl-4-fluoro-phenyl)-4-(2-isopropyl-imidazol-1-ylmethyl)-1H-[1,2,3]triazole], for which the IC50 was 0.011 µM at rat NR1/NR2B receptor [1], 25.1 µM on hERG-receptor and 0.011 µM on rat NR1/NR2B receptor [2].

With `Cc1nccn1Cc1cn(-c2ccc(Cl)c(OC(F)F)c2)nn1` [Example 93, 1-(4-Chloro-3-difluoromethoxy-phenyl)-4-(2-methyl-imidazol-1-ylmethyl)-1H-[1,2,3]triazole], the IC50 at rat NR1/NR2B receptor [1] was found to be 0.0012 µM; on hERG-receptor it was 9.6 µM; on rat NR1/NR2B receptor [2] it was 0.0012 µM.

On to `OCCc1nccn1Cc1cn(-c2ccc(F)c(OC(F)F)c2)nn1` [Example 101, 1-(3-Difluoromethoxy-4-fluoro-phenyl)-4-[2-(2-hydroxy-ethyl)-imidazol-1-ylmethyl]-1H-[1,2,3]triazole], for which the values for the IC50 on rat NR1/NR2B receptor [1], at hERG-receptor and at rat NR1/NR2B receptor [2] were 0.00426 µM, 36.7 µM and 0.00426 µM, respectively.

Turning to `Cn1nccc1Cc1cn(-c2ccc(F)c(Cl)c2)nn1` [Example 109, 1-(3-Chloro-4-fluoro-phenyl)-4-(2-methyl-2H-pyrazol-3-ylmethyl)-1H-[1,2,3]triazole], the IC50 is 4.32 µM on rat NR1/NR2B receptor [1], more than 100 µM at hERG-receptor and 4.32 µM on rat NR1/NR2B receptor [2].

As to `Nc1nccn1Cc1cn(-c2ccc(Cl)c(C(F)F)c2)nn1` [Example 113A, 4-(2-amino-imidazol-1-ylmethyl)-1-(4-chloro-3-difluoromethyl-phenyl)-1H-[1,2,3]triazole], the IC50 on rat NR1/NR2B receptor [1] worked out at 0.00065 µM; at hERG-receptor, 3.09 µM; at rat NR1/NR2B receptor [2], 0.00065 µM.

With `Nc1nccn1Cc1cn(-c2ccc(F)c(C(F)F)c2)nn1` [Example 113B, 4-(2-amino-imidazol-1-ylmethyl)-1-(4-fluoro-3-difluoromethyl-phenyl)-1H-[1,2,3]triazole], the IC50 at rat NR1/NR2B receptor [1] was 0.00048 µM; on hERG-receptor, 11 µM; at rat NR1/NR2B receptor [2] it was 0.00048 µM.

Turning to `CC(F)(F)c1cc(-n2cc(Cn3ccnc3N)nn2)ccc1F` [Example 114], the IC50 on rat NR1/NR2B receptor [1] came out at 0.00051 µM; at hERG-receptor, 4.31 µM; on rat NR1/NR2B receptor [2], 0.00051 µM.
